Source: patent US20260132129A1 (Genesis Therapeutics, Inc., priority 2022, published 2026)
pIC50: −log10 of the molar value.

Target: T1, PI3Kα H1047R (T47D cells) (Homo sapiens, UniProt P42336, H1047R)
T1 construct: endogenous in cells; host or cells: T47D cells
Test: PI3Kα cellular assay: pAKT HTRF in T47D cells after EGF stimulation
Type: cell-based
Conditions: for pIC50: T47D cells (PI3Kα H1047R), pAKT S473 HTRF, 1 hr compound, 20 ng/ml EGF 10 min
Procedure: SKBR3 or T47D cells are seeded in DMEM containing 10% FBS at 25k cells/well into 96-well cell culture format. Cells are incubated overnight at 37° C. in a 5% CO2 incubator and the following day cell media is aspirated, adherent cells are washed 1× with room temperature PBS prior to serum-free media application. Cells are returned to 37° C. 5% CO2 incubator and incubated a further 16 hrs. Compounds are added to serum starved adherent cells with a top dose of 10,000 nM and 3× multiple dose reductions for a minimum dose of 0.5 nM diluted in DMSO. Cell/compound incubation continues for 1 hr in a 37° C., 5% CO2 incubator prior to 10 minute PIK3CA stimulation with 20 ng/ml EGF. Cells treated with 0.1% DMSO and 20 ng/mL EGF are employed as negative control, cells treated with 10 uM Alpelisib and 20 ng/mL EGF are employed as a positive control. After 10 mins, plates are removed from incubator and cells are lysed with buffer and shaking 45 minutes. […] 384 well plate is left overnight at room temperature before reading HTRF on an Envision plate reader.
ND denotes value not determined with that assay for the specified compound; • for T47D (H1047R) selectivity over SKBR3 (WT): A denotes >20-fold; B denotes 20-fold≥value>5-fold; C denotes ≤5-fold. ND denotes value not determined with that assay for the specified compound; and • for T47D pAKT lipophilic efficiency (LiPE): A denotes >4; B denotes 4≥value>2; C denotes ≤2. ND denotes value not determined with that assay for the specified compound.

T1 sequence (P42336 whole entry H1047R): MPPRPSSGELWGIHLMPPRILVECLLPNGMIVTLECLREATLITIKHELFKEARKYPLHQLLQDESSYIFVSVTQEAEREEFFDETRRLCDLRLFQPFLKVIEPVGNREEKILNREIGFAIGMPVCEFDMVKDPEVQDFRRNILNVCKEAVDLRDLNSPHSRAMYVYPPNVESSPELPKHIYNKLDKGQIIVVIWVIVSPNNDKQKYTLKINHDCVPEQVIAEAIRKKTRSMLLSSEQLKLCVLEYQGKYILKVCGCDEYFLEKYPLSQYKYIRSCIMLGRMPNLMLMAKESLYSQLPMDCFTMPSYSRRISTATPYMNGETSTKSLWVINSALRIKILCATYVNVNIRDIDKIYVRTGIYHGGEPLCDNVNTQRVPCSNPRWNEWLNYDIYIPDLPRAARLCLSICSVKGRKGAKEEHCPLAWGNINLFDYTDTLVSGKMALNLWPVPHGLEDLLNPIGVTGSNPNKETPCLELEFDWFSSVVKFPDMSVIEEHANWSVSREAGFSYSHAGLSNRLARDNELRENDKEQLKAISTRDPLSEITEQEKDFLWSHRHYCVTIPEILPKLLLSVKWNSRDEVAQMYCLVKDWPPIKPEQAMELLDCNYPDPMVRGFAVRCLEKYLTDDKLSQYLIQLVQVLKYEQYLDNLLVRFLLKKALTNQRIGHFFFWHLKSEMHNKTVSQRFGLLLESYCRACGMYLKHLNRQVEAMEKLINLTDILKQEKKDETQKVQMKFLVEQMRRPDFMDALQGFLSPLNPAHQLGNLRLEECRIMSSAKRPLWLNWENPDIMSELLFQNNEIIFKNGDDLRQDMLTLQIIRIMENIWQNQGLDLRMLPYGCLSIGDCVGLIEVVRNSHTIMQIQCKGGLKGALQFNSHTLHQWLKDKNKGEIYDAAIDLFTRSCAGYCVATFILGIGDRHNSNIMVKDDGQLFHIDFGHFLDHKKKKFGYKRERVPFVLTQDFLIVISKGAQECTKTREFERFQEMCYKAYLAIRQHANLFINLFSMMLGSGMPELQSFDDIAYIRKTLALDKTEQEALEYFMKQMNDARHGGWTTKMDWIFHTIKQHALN
T1 sequence (P27986 whole entry partner): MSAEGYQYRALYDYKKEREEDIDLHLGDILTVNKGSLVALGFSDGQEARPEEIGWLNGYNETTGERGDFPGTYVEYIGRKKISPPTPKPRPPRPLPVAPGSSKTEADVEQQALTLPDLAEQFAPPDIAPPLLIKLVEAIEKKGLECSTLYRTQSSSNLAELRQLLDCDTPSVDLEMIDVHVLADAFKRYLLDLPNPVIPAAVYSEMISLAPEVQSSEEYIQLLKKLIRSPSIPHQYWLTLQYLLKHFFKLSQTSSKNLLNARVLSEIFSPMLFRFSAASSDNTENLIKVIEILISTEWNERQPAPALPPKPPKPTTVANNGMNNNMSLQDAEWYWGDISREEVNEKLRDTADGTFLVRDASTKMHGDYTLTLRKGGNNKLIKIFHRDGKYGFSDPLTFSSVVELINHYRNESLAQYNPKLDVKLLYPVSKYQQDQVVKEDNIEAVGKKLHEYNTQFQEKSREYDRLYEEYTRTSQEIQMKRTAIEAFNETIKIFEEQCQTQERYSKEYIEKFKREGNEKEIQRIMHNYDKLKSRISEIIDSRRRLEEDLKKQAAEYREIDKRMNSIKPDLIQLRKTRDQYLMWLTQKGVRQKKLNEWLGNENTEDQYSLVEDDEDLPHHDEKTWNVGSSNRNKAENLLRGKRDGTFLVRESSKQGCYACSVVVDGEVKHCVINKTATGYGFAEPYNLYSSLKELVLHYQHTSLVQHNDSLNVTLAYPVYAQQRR

SMILES	pIC50	T47D pAKT S473 HTRF IC50 (H1047R): T47D (H1047R) selectivity over SKBR3 (WT)
Cc1cc([C@@H](C)Nc2ccccc2C(=O)O)c2nc(C)cc(=O)n2c1 [Compound 178]		C (C denotes ≤5-fold)
CCN1CCN(Cc2ccccc2-c2cc(=O)n3cc(C)cc(C(C)Nc4ccccc4C(=O)O)c3n2)CC1 (stereo not drawn) [Compound 229]	< 5.70	C (C denotes ≤5-fold)
Cc1cc(C(C)Nc2ccccc2C(=O)O)c2nc(N3CCSCC3)cc(=O)n2c1 (stereo not drawn) [Compound 239]	< 5.70	C (C denotes ≤5-fold)
Cc1cc([C@H](C)Nc2ccccc2)c2nc(-c3cc(C)c4oc(=O)[nH]c4c3)cc(=O)n2c1 [Compound 252]	< 5.70	C (C denotes ≤5-fold)
Cc1cc([C@H](C)Nc2ccccc2)c2nc(-c3cc(F)c4c(N)n[nH]c4c3)cc(=O)n2c1 [Compound 258]	< 5.70	C (C denotes ≤5-fold)
Cc1cc([C@H](C)Nc2cc(F)cc(F)c2)c2nc(N3CCOCC3)cc(=O)n2c1 [Compound 264]	< 5.70	C (C denotes ≤5-fold)
Cc1cc(C(C)Nc2ccccc2)c2nc(-c3cnc4[nH]nc(-c5ccccc5)c4c3)cc(=O)n2c1 (stereo not drawn) [Compound 265]	< 5.70	C (C denotes ≤5-fold)
Cc1cc([C@H](C)Nc2ccccc2)c2nc(-c3cnc4[nH]nc(-c5ccccc5)c4c3)cc(=O)n2c1 [Compound 266]	< 5.70	C (C denotes ≤5-fold)
CC(Nc1ccccc1C(=O)O)c1cc(C#N)cn2c(=O)cc(N3CCOCC3)nc12 (stereo not drawn) [Compound 273]	< 5.70	C (C denotes ≤5-fold)
Cc1cc(C(C)Nc2ccccc2)c2nc(-c3ccc(N4CC(C)(C)C4)c(C#N)c3)cc(=O)n2c1 (stereo not drawn) [Compound 280]		C (C denotes ≤5-fold)
Cc1cc(C(C)NC2=C(CC(=O)O)C=CCC2)c2nc(N3CCSCC3)cc(=O)n2c1 (stereo not drawn) [Compound 284]	< 5.70	C (C denotes ≤5-fold)
Cc1cc([C@@H](C)NC2=C(CC(=O)O)C=CCC2)c2nc(N3CCSCC3)cc(=O)n2c1 [Compound 285]	< 5.70	C (C denotes ≤5-fold)
Cc1cc([C@H](C)Nc2ccccc2CC(=O)O)c2nc(N3CCSCC3)cc(=O)n2c1 [Compound 286]	< 5.70	C (C denotes ≤5-fold)
Cc1cc(C(C)Nc2cccc(F)c2C(=O)O)c2nc(N3CCOCC3)cc(=O)n2c1 (stereo not drawn) [Compound 287]	< 5.70	C (C denotes ≤5-fold)
Cc1cc(C(C)Nc2c(F)cccc2C(=O)O)c2nc(N3CCOCC3)cc(=O)n2c1 (stereo not drawn) [Compound 290]	< 5.70	C (C denotes ≤5-fold)
CC[C@@H](Nc1ccccc1C(=O)O)c1cc(C)cn2c(=O)cc(N3CCOCC3)nc12 [Compound 293]	< 5.70	C (C denotes ≤5-fold)
Cc1cc([C@@H](C)Nc2ccccc2C(=O)O)c2nc(N3CCOC[C@H]3C)cc(=O)n2c1 [Compound 296]	< 5.70	C (C denotes ≤5-fold)
CONC(=O)c1ccc(-c2cc(=O)n3cc(C)cc(C(C)NC4=CC=CCC4C(=O)O)c3n2)c(OC)c1 (stereo not drawn) [Compound 299]	< 5.70	C (C denotes ≤5-fold)
Cc1cc(C(C)NC2=CC=CCC2C(=O)O)c2nc(Cc3cccc(C4=CCCC=C4)c3)c(C)c(=O)n2c1 (stereo not drawn) [Compound 300]	< 5.70	C (C denotes ≤5-fold)
Cc1cc(C(C)Nc2ccccc2C(=O)O)c2nc(-c3cccc(-c4nn[nH]n4)c3)cc(=O)n2c1 (stereo not drawn) [Compound 303]	< 5.70	C (C denotes ≤5-fold)
Cc1cc(C(C)Nc2ccccc2C(=O)O)c2nc(-c3ccc4[nH]nc(-c5ccccn5)c4c3)cc(=O)n2c1 (stereo not drawn) [Compound 304]	< 5.70	C (C denotes ≤5-fold)
Cc1cc(C(C)Nc2ccccc2C(=O)O)c2nc(-c3ccc(CN4CCN(C)CC4)cc3)cc(=O)n2c1 (stereo not drawn) [Compound 308]	< 5.70	C (C denotes ≤5-fold)
Cc1cc([C@@H](C)N(C)c2ccccc2C(=O)O)c2nc(N3CCOCC3)cc(=O)n2c1 [Compound 309]	< 5.70	C (C denotes ≤5-fold)
Cc1cc([C@H](C)N(C)c2ccccc2C(=O)O)c2nc(N3CCOCC3)cc(=O)n2c1 [Compound 310]	< 5.70	C (C denotes ≤5-fold)
COCCNc1cc(=O)n2cc(C)cc(C(C)Nc3ccccc3C(=O)O)c2n1 (stereo not drawn) [Compound 313]	< 5.70	C (C denotes ≤5-fold)
Cc1cc([C@@H](C)Nc2ccccc2C(=O)O)c2nc(C3CCOCC3)cc(=O)n2c1 [Compound 316]	< 5.70	C (C denotes ≤5-fold)

More lines, now with the values ahead:

pIC50	T47D pAKT S473 HTRF IC50 (H1047R): T47D (H1047R) selectivity over SKBR3 (WT)	SMILES
< 5.70	C (C denotes ≤5-fold)	Cc1cc([C@H](C)Nc2ccccc2S(C)(=O)=O)c2nc(N3CCOCC3)cc(=O)n2c1 [Compound 160]
< 5.70	C (C denotes ≤5-fold)	Cc1cc(C(C)Nc2cnccc2C(=O)O)c2nc(N3CCOCC3)cc(=O)n2c1 (stereo not drawn) [Compound 194]
> 7.00	A (A denotes >20-fold)	Cc1cc(C(C)Nc2ccccc2C(=O)O)c2nc(N3CCSCC3)cc(=O)n2c1 (stereo not drawn) [Compound 240]
> 7.00	C (C denotes ≤5-fold)	Cc1cc([C@@H](C)Nc2ccccc2C)c2nc(N3CCOCC3)cc(=O)n2c1 [Compound 248]
5.70 to 6.30	C (C denotes ≤5-fold)	Cc1cc([C@H](C)Nc2ccccc2C)c2nc(N3CCOCC3)cc(=O)n2c1 [Compound 249]
5.70 to 6.30	C (C denotes ≤5-fold)	Cc1cc([C@@H](C)Nc2cc(F)cc(F)c2)c2nc(N3CCOCC3)cc(=O)n2c1 [Compound 263]
6.30 to 7.00	A (A denotes >20-fold)	Cc1cc(C(C)Nc2ccccc2C(=O)O)c2nc(-c3ccncc3)cc(=O)n2c1 (stereo not drawn) [Compound 267]
> 7.00	C (C denotes ≤5-fold)	CC(Nc1ccccc1C(=O)O)c1cc(C(N)=O)cn2c(=O)cc(N3CCOCC3)nc12 (stereo not drawn) [Compound 276]
5.70 to 6.30	B (B denotes 20-fold≥value>5-fold)	Cc1cc(C(C)Nc2ccc(F)cc2C(=O)O)c2nc(N3CCOCC3)cc(=O)n2c1 (stereo not drawn) [Compound 288]
6.30 to 7.00	C (C denotes ≤5-fold)	Cc1cc(C(C)Nc2cc(F)ccc2C(=O)O)c2nc(N3CCOCC3)cc(=O)n2c1 (stereo not drawn) [Compound 289]
5.70 to 6.30	C (C denotes ≤5-fold)	CC[C@H](Nc1ccccc1C(=O)O)c1cc(C)cn2c(=O)cc(N3CCOCC3)nc12 [Compound 294]
5.70 to 6.30	B (B denotes 20-fold≥value>5-fold)	Cc1cc(C(C)Nc2ccccc2C(=O)O)c2nc(N3CCOC[C@H]3C)cc(=O)n2c1 (stereo partly drawn) [Compound 295]
6.30 to 7.00	A (A denotes >20-fold)	Cc1cc([C@H](C)Nc2ccccc2C(=O)O)c2nc(N3CCOC[C@H]3C)cc(=O)n2c1 [Compound 297]
5.70 to 6.30	B (B denotes 20-fold≥value>5-fold)	Cc1cc(C(C)Nc2ccccc2C(=O)O)c2nc(-c3ccc(S(N)(=O)=O)cc3)cc(=O)n2c1 (stereo not drawn) [Compound 302]
5.70 to 6.30	B (B denotes 20-fold≥value>5-fold)	Cc1cc([C@@H](C)Nc2ccccc2C(=O)O)c2nc(-c3ccc(CC4CCN(C)CC4)cc3)c(C)c(=O)n2c1 [Compound 307]
5.70 to 6.30	B (B denotes 20-fold≥value>5-fold)	Cc1cc(C(C)Nc2ccccc2C(=O)O)c2nc(N3C[C@@H](C)O[C@@H](C)C3)cc(=O)n2c1 (stereo partly drawn) [Compound 315]
6.30 to 7.00	A (A denotes >20-fold)	Cc1cc([C@H](C)Nc2ccccc2C(=O)O)c2nc(C3CCOCC3)cc(=O)n2c1 [Compound 317]
